The nature of data set [1]: Cell viability (MTT) in Vero cells. To be noted: African green monkey.
Data set [2] deals with ACV‐resistant HSV‐1 strain F‐TKGF. Put plainly: Antiviral assay, ACV‐resistant HSV‐1 strain F‐TKGF in Vero cells. The note with it: Human alphaherpesvirus 1, Vero, read-out: EC50 against ACV‐resistant strain F‐TKGF.
Data set [3] deals with HSV‐1. Put plainly: HSV‐1 infection model in BALB/c mice. The format is in vivo. The note with it: for clinical symptoms of the infection / morbidity: oral LN‐7 75 mg kg−1 or acyclovir 50 mg kg−1; for survival: 8 days postinfection.
The test system of data set [4] is BALB/c mice. The note with it: oral, five consecutive days, LN‐7 25, 50, 75 mg kg−1, acyclovir 50 mg kg−1, 12 days. The procedure:
BALB/c mice were purchased from Charles River Laboratories Spain and maintained at the Animal Facility of the CBM (Madrid, Spain). The toxicity of the test compound LN‐7 was investigated in BALB/c mice dosed as a solution at 25, 50, and 75 mg kg^−1. The compound was formulated in 3% DMSO + 10% solutol HS‐15 + 87% double‐distilled water (20 mg mL^−1). Animals had free access to food and water throughout each study. […] Compounds were orally administered for five consecutive days. Animals were monitored daily for clinical signs (piloerection, lethargy, eye closure), body weight loss, and survival. Oral administration and symptom monitoring was performed by researchers that were aware of the treatment condition (group allocation) for each animal. […] Animals with score 4 were defined as the humane endpoint on which the animal must be euthanized. On day 12, mice were sacrificed and whole blood was obtained by cardiac puncture. Several parameters were analyzed to monitor renal, hepatic, and immunological basic profiles. Body weight was also monitored to exclude weight loss or lack of weight gain that would be indicative of toxicity.

The target of data set [5] is HSV‐1 pUL15C (Human herpesvirus 1, UniProt P04295). Description: HSV‐1 pUL15C nuclease inhibition enzymatic assay (32P‐labeled 33‐bp dsDNA substrate). The format is biochemical. To be noted: for inhibition at 50 µM: read-out: percentage inhibition of pUL15C nuclease activity at the highest concentration tested; for IC50: concentration required to inhibit by 50% the pUL15C nuclease activity, 37 °C, 1 mM MnCl2, 15 min.

The subject of data set [6] is HSV‐2 strains G and Lovelace. Description: Antiviral assay, HSV‐2 strains G and Lovelace in Vero cells (viral titer, TCID50). The note with it: 10 µM, 24 h post‐infection.
A short description of data set [7]: Pharmacokinetics studies in rats. The format is in vivo. The note with it: male, Sprague-Dawley, plasma, rat. The procedure:
Six male Sprague‐Dawley rats (180–200 g) were randomly divided into two groups to receive […] of LN‐7 at 2 mg kg^−1 (iv administration) or 10 mg kg^−1 (po administration). LN‐7 was dissolved in DMSO, and then diluted at a concentration of 1 mg mL^−1 in 3% DMSO, 10% solutol HS‐15, and 87% double‐distilled water for dosing. Rats were purchased from Beijing Vital River Laboratory Animal Technology Co., Ltd. (Qualification No. SCXK(SH) 2021‐0011). Animals were subjected to 12 h alternating light and dark cycles, ad libitum access to drinking water and food, and fasting for 12 h prior to the initiation of treatments. For the oral dose at 10 mg kg^−1, blood samples were collected at 0.083, 0.25, 0.5, 1, 2, 4, 6, 8, and 24 h postadministration. For the intravenous dose (at 2 mg kg^−1), blood samples were collected at 0.083, 0.25, 0.5, 1, 2, 4, 6, 8, and 24 h postadministration. Twenty µL of blood were mixed with a 200 µL solution of methanol:acetonitrile (1:1), vortexed for 5 min, and centrifuged (4000 rpm, 4 °C, 10 min) to obtain plasma within 30 min of sampling. The supernatant was analyzed by liquid chromatography–tandem mass spectrometry. Chromatographic separation was performed using an ACQUITY UPLC HSS T3 column (2.1 × 50 mm, 1.8 µm). […] Gradient elution was carried out at a flow rate of 0.8 mL min^−1. […] Mass spectrometric detection was performed with an electrospray ionization source operating in positive ion mode. Quantification was achieved using multiple reaction monitoring with the following transitions: m/z 403.15.
Pharmacokinetic parameters such as AUC, T 1/2, and C max were calculated with the WinNonlin software.

Data set [8] concerns recombinant HSV‐2 GFP strain. To be noted: Human alphaherpesvirus 2, Vero, read-out: EC50 against recombinant HSV‐2 GFP strain.
The mark [9] stands for this setting: treatment after infection, days 0-3 p.i., LN‐7 75 mg kg−1, acyclovir 50 mg kg−1 or both.

One may read the CC50 as the concentration giving 50% cytotoxicity. For orientation: EC50 means the concentration giving half of the maximal effect. For orientation: IC50 means the point on the concentration scale where inhibition reaches its midpoint. For orientation: AUC(0-inf) means the area under the concentration-time curve extrapolated to infinity. The Cmax is the maximum level reached in the sampled fluid or tissue. Broadly, the Tmax is the time from dosing to the highest level. By clearance is commonly meant a measure of how efficiently the substance is removed, as volume per time. In general, half-life refers to the time needed for the level to fall by half in the phase considered.

Chain of HSV‐1 pUL15C (P04295 471-735): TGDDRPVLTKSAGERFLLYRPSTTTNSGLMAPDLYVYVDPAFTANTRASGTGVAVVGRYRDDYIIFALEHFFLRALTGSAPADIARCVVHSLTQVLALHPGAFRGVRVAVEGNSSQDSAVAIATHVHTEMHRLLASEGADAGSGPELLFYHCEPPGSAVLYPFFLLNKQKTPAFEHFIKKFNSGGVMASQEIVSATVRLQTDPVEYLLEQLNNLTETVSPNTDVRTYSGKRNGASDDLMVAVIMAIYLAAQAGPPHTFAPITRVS

In data set [1] (Vero cells), `Nc1nc2c(ncn2COCCO)c(=O)[nH]1` [Acyclovir (ACV), Acyclovir, reference compound] showed a CC50 at 24 h above 100 µM. In addition, the 50% effective concentration (EC50) in data set [2] is above 20 µM. Moreover, the “clinical symptoms of the infection / morbidity” value in data set [3] (prophylactic setting) is “Clinical symptoms of the infection were observed”. In data set [3] (setting [9]), the clinical symptoms entry is on record as “clinical symptoms were alleviated”, the piloerection entry is on record as “piloerection was observed” and the survival result was “survived until the end of the experiment”. Further, the “toxic symptoms or mortality” value in data set [4] is reported as “did not show any toxic symptoms or mortality”.
`O=C1c2c(O)c(=O)ccn2N([C@@H]2c3ccccc3SCc3c2ccc(F)c3F)[C@@H]2COCCN12` [Baloxavir acid, reference compound]: the CC50 at 24 h in data set [1] is above 100 µM.
The compound `COC(=O)OCOc1c2n(ccc1=O)N([C@@H]1c3ccccc3SCc3c1ccc(F)c3F)[C@@H]1COCCN1C2=O` [Baloxavir marboxil, reference compound] returned a CC50 at 24 h in data set [1] above 100 µM.
Regarding `O=C1c2c(O)c(=O)ccn2N(Cc2ccc(C(F)(F)F)cc2)[C@@H]2COCCN12` [Compound 7], in data set [1] (Vero cells), the CC50 at 24 h was above 100 µM.
With `O=C1c2c(O)c(=O)ccn2N(Cc2ccc(Cl)c(F)c2)[C@@H]2COCCN12` [Compound 10], the CC50 at 24 h in data set [1] (Vero cells) is above 100 µM.
Turning to `O=C1c2c(O)c(=O)ccn2N(Cc2ccc3ccc4cccc5ccc2c3c45)[C@@H]2COCCN12` [Compound 12], in data set [5], the inhibition at 50 µM turned out to be 65.4% and the IC50 was above 30 µM.
As for `O=C1c2c(O)c(=O)ccn2N(Cc2ccc(-c3ccco3)cc2)[C@@H]2COCCN12` [Compound 16, (R)-12-(4-(furan-2-yl)benzyl)-7-hydroxy-3,4,12,12a-tetrahydro-1H-[1,4] oxazi no[3,4-c] pyrido[2,1-f] [1,2,4] triazine-6,8-dione], in data set [1] (Vero cells), the CC50 at 24 h was above 100 µM.
As to `O=C1c2c(O)c(=O)ccn2N(Cc2ccc(-c3ccccc3)cc2)[C@@H]2COCCN12` [Compound 17, (R)-12-([1,1'-biphenyl] -4-ylmethyl)-7-hydroxy-3,4,12,12a-tet rahydro-1H-[1,4] oxazino[3,4-c] pyrido[2,1-f] [1,2,4] triazine-6,8-dione], in data set [6], the “reduction in the viral titer” value is recorded as “reduction of two orders of magnitude”. In addition, in data set [1] (Vero cells), the CC50 at 24 h was 38.8 µM. For the same compound, the EC50 in data set [2] came out at 3.2 ± 0.3 µM. Besides, in data set [7] (IV 2 mg/Kg), the AUC(0-inf) came out at 1230 ± 182 ng·h/mL, the peak level (Cmax) was 782 ± 63.2 ng/mL, the Tmax amounted to 0.0833 h and the clearance is 27.4 mL/min/kg. The half-life in data set [7] (IV 2 mg/Kg) is 374 ± 74.4 min. In data set [7] (IV 2 mg/Kg, read-out: Vz), the Vd amounted to 15.1 ± 4.05 L/kg. Besides, in data set [7] (PO 10 mg/Kg), the AUC(0-inf) is 2980 ± 763 ng·h/mL, the highest level (Cmax) was 573 ± 152 ng/mL, the Tmax was found to be 2 h and the half-life is 332 ± 40.6 min. The “HSV‐1 titers in lung, brain, olfactory bulb and spleen tissues” value in data set [3] (prophylactic setting, oral LN‐7 75 mg kg−1, days −1 to 3 p.i., day 8 p.i.) is reported as “decreased around one to two orders of magnitude”. Besides, in data set [3] (prophylactic setting), the “clinical symptoms of the infection / morbidity” value is reported as “morbidity was higher for the LN‐7‐treated animals”. Besides, in data set [3] (setting [9]), the clinical symptoms result is recorded as “clinical symptoms were alleviated”, the piloerection result is given as “piloerection was observed” and the survival result is recorded as “survived until the end of the experiment”. The “viral titers in tissues (lungs, brain, olfactory bulb, kidneys, spleen)” value in data set [3] (treatment after infection, days 0-3 p.i., LN‐7 75 mg kg−1, acyclovir 50 mg kg−1 or both, day 8 p.i.) is given as “significant reductions in the viral titers in all analyzed tissues of treated mice, except for kidney tissue”. Also, the 50% effective concentration (EC50) in data set [8] turned out to be 3.6 ± 1.8 µM. Besides, in data set [4], the “toxic symptoms or mortality” value was “did not show any toxic symptoms or mortality”.
Regarding `O=C1c2c(O)c(=O)ccn2N(Cc2ccc(-c3ccc4[nH]ccc4c3)cc2)[C@@H]2COCCN12` [Compound 19], in data set [5], the inhibition at 50 µM amounted to 51.5% and the IC50 is above 30 µM.
Compound `O=C1c2c(O)c(=O)ccn2N(Cc2ccc(-c3ccc(F)cc3)cc2)[C@@H]2COCCN12` [Compound 30] registered a CC50 at 24 h in data set [1] (Vero cells) above 66.5 µM.
Consider `O=C1c2c(O)c(=O)ccn2N(Cc2ccc(-c3ccc(Cl)cc3)cc2)[C@@H]2COCCN12` [Compound 31], for which, in data set [5], the inhibition at 50 µM is 48.1% and the IC50 is above 30 µM.
For `O=C1c2c(O)c(=O)ccn2N(Cc2ccc(-c3ccc([N+](=O)[O-])cc3)cc2)[C@@H]2COCCN12` [Compound 32], in that order: 74.3% and above 30 µM.
`COc1ccc(-c2ccc(CN3[C@@H]4COCCN4C(=O)c4c(O)c(=O)ccn43)cc2)cc1` [Compound 33] returned an IC50 in data set [5] of 19.4 ± 1.3 µM.
Consider `O=C1c2c(O)c(=O)ccn2N(Cc2ccc(-c3ccc(OC(F)(F)F)cc3)cc2)[C@@H]2COCCN12` [Compound 34], for which the CC50 at 24 h in data set [1] (Vero cells) is above 52.8 µM.
Consider `O=C(Nc1ccccc1)c1ccc(-c2ccc(CN3[C@@H]4COCCN4C(=O)c4c(O)c(=O)ccn43)cc2)cc1` [Compound 40], for which, in data set [5], the inhibition at 50 µM amounted to 42.7% and the IC50 is above 30 µM.
In data set [1] (Vero cells), `CC(C)c1ccc(O)c(=O)c(O)c1` [β‐thujaplicinol, reference compound] came in with a half-maximal cytotoxic concentration (CC50) at 24 h above 100 µM.
